Reference: PMC10216263, “Favorable Preclinical Pharmacological Profile of a Novel Antimalarial Pyrrolizidinylmethyl Derivative of 4-amino-7-chloroquinoline with Potent In Vitro and In Vivo Activities” (Biomolecules, 2023)
Where two headings read alike, the source gives them in different places.

How the values were obtained:
P. falciparum 3D7 (CQ-S) = test: In vitro antimalarial activity, [3H]-hypoxanthine incorporation (LSHTM); assay type: cell-based; conditions: Plasmodium falciparum, 3D7; 72 h, [3H]-hypoxanthine incorporation, mean of 3 experiments; read-out: P. falciparum IC50 nM, 3D7 (CQ-S)
P. falciparum K1 (CQ-R) = test: as above; assay type: cell-based; conditions: Plasmodium falciparum, K1; 72 h, [3H]-hypoxanthine incorporation, mean of 3 experiments; read-out: P. falciparum IC50 nM, K1 (CQ-R)
[1] = test system: P. falciparum FCR3 (CQ-R); test: as above; assay type: cell-based; conditions: Plasmodium falciparum, FCR3; 72 h, [3H]-hypoxanthine incorporation, mean of 3 experiments; read-out: P. falciparum IC50 nM, FCR3 (CQ-R)
in vivo = test: in vivo; set-up: species or system male Sprague Dawley rats; conditions: male, Sprague Dawley, rat
Description: The formulations were prepared on the days of dosing, immediately before administration. MG3 for IV administration was formulated as in situ dimesylate salt, in 5% of glucose solution (4 mg/mL nominal concentration), while for oral administration it was prepared by suspending the test item in 0.5% methocel solution (v/v) (6 mg/mL nominal concentration). […] After 5-days postoperative recovery period, MG3 was administered and serial blood samples (about 0.3 mL) were collected from femoral vein using heparinized syringe at 5, 15, and 30 min, 1, 3, 6, 24-, 48-, 72- and 96-hours post-dosing after IV administration and at 15, and 30 min, 1, 3, 6 and 24-, 48-, 72- and 96-hours post-dosing after oral administration. The samples were then transferred into pre-cooled tubes protected from light and centrifuged at 3000 rpm for 4 min at +4 °C to collect plasma, and single aliquots of plasma were stored at −80 °C until analysis. Sample analysis: 400 µL of methanol was added to 10 µL of plasma in a 96-well plate; after centrifugation for 15 min at 2000 rpm at 6 °C, an aliquot of 360 µL of supernatant was transferred into a new 96-well plate and dried at 40 °C. Sample extracts were reconstituted with a volume of 150 µL of a mixture solution of 10 mM ammonium formate pH 3.5:methanol (90:10; v/v) and centrifuged for 3 min at 2000 rpm at 6 °C and the supernatant was injected onto the LC-MS/MS system. A HP1100 HPLC with a Synergy 4 um Hydro-RP 80A 2.0 × 50 mm column, coupled with AB/MDS Sciex 4000 QTrap in positive ion mode was utilized for analysis; 10 µL samples were injected, a gradient with 10 mM ammonium formate pH 3.5 and methanol was utilized. Data obtained were analyzed using the non-compartmental approach (Watson package v. 6.4.0.04, Thermo Fisher Scientific, Waltham, MA, USA).

[2] = test system: Pf-3D7 gametocytes >95% Stage I-III; test: Gametocyte luciferase assay (3D7elo1-pfs16-CBG99); assay type: cell-based, P. falciparum
Description: (§1) In vitro activity of MG3 against P falciparum sexual gametocyte stages […]
(§2) luminescent transgenic 3D7 strain (3D7elo1-pfs16-CBG99) at two different stages (I-III and V) using the […]
(§3) Briefly, 100 µL of culture medium were removed from each well to increase hematocrit; 70 µL of resuspended culture were transferred to a black 96-well plate; 70 µL of D-luciferin (1 mM in citrate buffer 0.1 M, pH 5.5) were added. Luminescence measurements were performed after 10 min with 500 ms integration time using a Synergy4-BioTek reader.
(§4) (1 picture or pasted object on this page, not shown here)

[3] = test system: Pf-3D7 gametocytes >95% Stage V; test: Gametocyte luciferase assay (3D7elo1-pfs16-CBG99); assay type: cell-based, P. falciparum; conditions: Plasmodium falciparum, 3D7, read-out: Pf-3D7 gametocytes IC50 (nM), >95% Stage V
Description: as §1, §2, §3, §4

[4] = Chemical stability in incubation medium; assay type: physicochemical; conditions: 90 min at 37 °C, Leibovitz L-15 medium
Description: An automatic liquid handling system (Multiprobe II EX, Packard) was used for sampling. At 0, 10, 20, 30, 60 and 90 min, […] aliquots of the incubates were taken and added with […] of ice-cold ACN and […] of 1 µM warfarin in ACN (internal standard), and samples centrifuged at 2000 rpm for 20 min. The analysis of supernatant was conducted using LC-MS/MS. MG3 was incubated in the medium under the same conditions to evaluate the chemical stability; 7-ethoxycoumarin (7-ETC) 1 µM and 7-hydroxycoumarin (7-HC) 30 µM were utilized as positive controls for Phase I and Phase II activities. […] Half-life and CLint were determined from the concentration (counts) remaining at the different sampling points using the LC-MS/MS method. The slope was calculated using linear regression analysis of the curve (natural logarithmic area of the compound remaining against the time) and converted into the half-life (t1/2) and CLint expressed as µL/min/million cells and mL/min/kg, respectively.

CYP1A2 = CYP1A2 (Homo sapiens, UniProt P05177); test: in vitro
CYP2C9 = CYP2C9 (Homo sapiens, UniProt P11712); test: in vitro
CYP2C19 = CYP2C19 (Homo sapiens, UniProt P33261); test: in vitro
[5] = test system: Salmonella typhimurium TA100; test: Bacterial Reverse Mutation Assay; conditions: TA 100, with metabolic activation
Description: (§5) using the preincubation method (30 min, 37°C) with and without phenobarbital-5,6-benzoflavone induced
(§6) MG3 was dissolved in distilled water (H2O) at
(§7) the maximum concentration of 40 mg/mL and tested in a preliminary range-finding test in all strains of
(§8) metabolic activation to determine the toxicity of the compound.

[6] = test system: Salmonella typhimurium TA98, TA100 and Escherichia coli WP2 uvrA; test: Bacterial Reverse Mutation Assay, overall; conditions: with or without rat liver S9, up to 1000 per plate
Description: as §5, §6, §7, §8

Chain of CYP1A2 (P05177 whole entry): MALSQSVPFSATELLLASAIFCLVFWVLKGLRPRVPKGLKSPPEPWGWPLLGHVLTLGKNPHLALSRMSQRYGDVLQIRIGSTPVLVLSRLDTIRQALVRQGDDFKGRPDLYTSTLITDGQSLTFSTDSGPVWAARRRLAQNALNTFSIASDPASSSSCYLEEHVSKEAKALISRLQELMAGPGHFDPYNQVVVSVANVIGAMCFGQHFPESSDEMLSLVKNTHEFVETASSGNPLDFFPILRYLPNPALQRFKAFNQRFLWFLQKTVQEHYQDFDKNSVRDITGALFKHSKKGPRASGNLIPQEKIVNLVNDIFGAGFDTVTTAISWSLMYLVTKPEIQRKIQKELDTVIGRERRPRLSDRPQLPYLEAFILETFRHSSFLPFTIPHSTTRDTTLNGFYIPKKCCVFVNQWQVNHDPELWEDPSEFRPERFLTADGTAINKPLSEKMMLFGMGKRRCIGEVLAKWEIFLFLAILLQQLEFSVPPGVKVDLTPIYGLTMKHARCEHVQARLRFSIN
Chain of CYP2C19 (P33261 whole entry): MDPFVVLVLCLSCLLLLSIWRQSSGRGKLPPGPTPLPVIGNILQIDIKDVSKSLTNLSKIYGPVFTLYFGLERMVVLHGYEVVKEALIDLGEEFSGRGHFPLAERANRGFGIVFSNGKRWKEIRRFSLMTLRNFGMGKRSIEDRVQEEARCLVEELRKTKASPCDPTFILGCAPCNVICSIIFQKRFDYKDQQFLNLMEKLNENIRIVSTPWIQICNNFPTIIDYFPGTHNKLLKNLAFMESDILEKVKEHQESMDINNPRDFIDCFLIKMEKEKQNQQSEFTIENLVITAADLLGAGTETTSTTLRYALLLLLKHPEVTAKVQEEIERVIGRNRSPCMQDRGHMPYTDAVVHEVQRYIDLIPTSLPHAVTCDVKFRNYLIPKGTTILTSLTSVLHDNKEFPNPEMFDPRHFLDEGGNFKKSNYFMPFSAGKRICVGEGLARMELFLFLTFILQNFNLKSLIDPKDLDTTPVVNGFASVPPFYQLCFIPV
Chain of CYP2C9 (P11712 whole entry): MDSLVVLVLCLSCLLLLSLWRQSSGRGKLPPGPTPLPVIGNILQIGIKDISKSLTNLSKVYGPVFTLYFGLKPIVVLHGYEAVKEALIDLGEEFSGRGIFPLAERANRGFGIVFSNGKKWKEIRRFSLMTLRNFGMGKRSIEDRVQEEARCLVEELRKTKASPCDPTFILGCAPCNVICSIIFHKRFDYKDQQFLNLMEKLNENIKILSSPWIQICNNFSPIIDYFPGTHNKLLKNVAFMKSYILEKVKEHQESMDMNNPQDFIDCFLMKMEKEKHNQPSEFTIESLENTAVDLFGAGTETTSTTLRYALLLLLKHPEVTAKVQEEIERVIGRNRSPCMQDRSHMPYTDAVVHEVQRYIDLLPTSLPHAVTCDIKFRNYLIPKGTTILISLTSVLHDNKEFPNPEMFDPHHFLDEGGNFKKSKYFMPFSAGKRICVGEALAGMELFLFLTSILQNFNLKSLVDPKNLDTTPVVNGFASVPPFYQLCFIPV

Clc1ccc2c(NCC34CCCN3CCC4)ccnc2c1 [MG3, 7-Chloro-N-((hexahydro-1H-pyrrolizin-7a-yl)methyl)quinolin-4-amine]
IC50 (P. falciparum 3D7 (CQ-S)): 12.6 nM
IC50 (P. falciparum K1 (CQ-R)): 21.2 nM
IC50 [1]: 13.2 nM
AUC(0-inf) (in vivo; iv, 10 mg/kg): 1300 ± 223 ng·h/mL
AUC(0-t) (in vivo; iv, 10 mg/kg): 1290 ± 217 ng·h/mL
Cmax (in vivo; iv, 10 mg/kg): 395 ± 118 ng/mL
Vd (in vivo; iv, 10 mg/kg): 59.9 L/kg
clearance (in vivo; iv, 10 mg/kg): 139 ± 20.2 mL/min/kg
half-life (in vivo; iv, 10 mg/kg): 7.7 ± 0.6 h
tlast (in vivo; iv, 10 mg/kg): 48.0 ± 0.1 h
AUC(0-inf) (in vivo; po, 30 mg/kg): 4400 ± 633 ng·h/mL
AUC(0-t) (in vivo; po, 30 mg/kg): 4360 ± 630 ng·h/mL
Cmax (in vivo; po, 30 mg/kg): 213 ± 23.7 ng/mL
half-life (in vivo; po, 30 mg/kg): 10.7 ± 1.2 h
still detectable in the plasma up to (in vivo; po, 30 mg/kg): 72 to 96 h
tlast (in vivo; po, 30 mg/kg): 80.0 ± 13.9 h
IC50 ([2]; Plasmodium falciparum, 3D7, read-out: Pf-3D7 gametocytes IC50 (nM), >95% Stage I-III, luciferase readout, 3D7elo1-pfs16-CBG99): 102 ± 22.1 nM
IC50 ([2]; read-out: Pf-3D7 gametocytes IC50 (nM), >95% Stage I-III, luciferase readout, 3D7elo1-pfs16-CBG99): ~100 nM
IC50 [3]: 10700 ± 2790 nM
chemical stability in incubation medium alone [4]: did not show any degradation
inhibition at 3 µM (CYP1A2): 12.1 ± 1.2%
inhibition at 3 µM (CYP2C9): 8.8 ± 2.2%
inhibition at 3 µM (CYP2C19): < 3%
fold increase value (ratio treated/solvent revertant numbers) ([5]; I° Exp., 62.5 µg/plate): 0.6
fold increase value (ratio treated/solvent revertant numbers) ([5]; I° Exp., 125 µg/plate): 0.6
fold increase value (ratio treated/solvent revertant numbers) ([5]; I° Exp., 250 µg/plate): 0.8
fold increase value (ratio treated/solvent revertant numbers) ([5]; I° Exp., 500 µg/plate): 0.8
fold increase value (ratio treated/solvent revertant numbers) ([5]; I° Exp., 1000 µg/plate): 0.8
fold increase value (ratio treated/solvent revertant numbers) ([5]; Range finding, 1.95 µg/plate): 1.1
fold increase value (ratio treated/solvent revertant numbers) ([5]; Range finding, 3.9 µg/plate): 1.1
fold increase value (ratio treated/solvent revertant numbers) ([5]; Range finding, 7.81 µg/plate): 1.2
fold increase value (ratio treated/solvent revertant numbers) ([5]; Range finding, 15.63 µg/plate): 0.9
fold increase value (ratio treated/solvent revertant numbers) ([5]; Range finding, 31.25 µg/plate): 1.0
fold increase value (ratio treated/solvent revertant numbers) ([5]; Range finding, 62.5 µg/plate): 1.0
fold increase value (ratio treated/solvent revertant numbers) ([5]; Range finding, 125 µg/plate): 1.0
fold increase value (ratio treated/solvent revertant numbers) ([5]; Range finding, 250 µg/plate): 1.0
fold increase value (ratio treated/solvent revertant numbers) ([5]; Range finding, 500 µg/plate): 1.2
fold increase value (ratio treated/solvent revertant numbers) ([5]; Range finding, 1000 µg/plate): 0.7
mutagenicity judgement [6]: non-mutagenic
